Results from patent US20230346735A1, “Nutritional Composition Comprising Carnitine and Method for Treating or Preventing an Infection in a Mammal” (priority 2020, published 2023).

Tested on: ACE-2
Test: ACE-2 surface protein in Calu-3 cells, flow cytometry
Format: cell-based, human
Conditions: Calu-3, 100, 500 and 1000 µM, less than L-carnitine
Experimental: ACE-2 surface expression protein in Calu-3 cells was evaluated using FACS flow cytometry sorting. […] Cells were detached with PBS/EDTA at room temperature. FBS-containing growth media was added to cells to inactivate TE. Cells were spun for 5 min at […]. Supernatant was removed and cells were washed twice in flow buffer (PBS+0.2% FBS). Between 100,000-200,000 cells were stained for ACE-2 and BST2 (absent in Calu-3and used as a control) for 30 min on ice using goat anti-ACE-2 (R&D Systems; AF933) and PE-conjugated BST2 (BioLegend; Cat # 348406). Cells were washed once and stained with Alexa Fluor 647 donkey anti-goat for 30 min on ice. Cells were washed once, resuspended in PBS/EDTA and samples were acquired on a FACS LSR Fortessa cytometer (BD Bioscience). Data were analyzed using Flowjo (Version 10.1).
The testing was repeated with D-Carnitine as well. Cells were either stained for ACE2 using either anti-ACE2 Ab, anti-BST2 Ab or the combination or both followed by secondary Ab isotype. […] The table represents the fluorescence counts.

Question: For C[N+](C)(C)C[C@@H](O)CC(=O)[O-] [D-carnitine], which “ACE-2 surface protein levels” value is on record?
Answer: Its value is “decreased significantly”.
